The target of one assay is T1, mouse CAIX (Mus musculus, UniProt Q8VHB5).
T1 construct: host or cells: CHO-VGT / CHO cells
Description: Radioligand saturation binding on CHO-msCAIX. As to the method: (§1) After attainment of equilibrium, the cells were harvested, and the bound fraction of the compounds was measured. The resulting saturation binding data were analyzed using Graph Pad Prism 8.3.
(§2) CHO cells transfected with human, dog, and mouse CAIX (CHO-huCA9 T04J-1/20 K1, CHO-dogCA9 T05J-9/20 K4, CHO-murCA9 T05J-3/20 K4) were obtained from InSCREENex (Germany).
(§3) A molar excess of 3BP-3565 was used as a blocking peptide to assess non-specific binding in autoradiographic studies. 3BP-3565 binds with a similar affinity to CAIX and blocks binding sites of test compounds. For the blocking solution, a 10 mM stock solution of 3BP-3565 was prepared by dissolution in DMSO.
(§4) CHO cells were maintained in Ham's medium supplemented with 10% fetal bovine serum, 2 mM L-glutamine, 100 U/mL Penicillin and 0.1 mg/mL streptomycin under standard cell culture conditions. The cells were grown in uncoated cell culture flasks (150 cm^2, Biochrom) to subconfluence and then split 1:2-1:3. Approximately 24 hours before the assay, cells were detached by incubation with Accutase and carefully tapping the flasks. Detached cells were resuspended in medium and collected by centrifugation (300 g, 5 min, RT). Cell pellets were resuspended in cell culture medium and counted using a particle counter (CASY Model TT, Scharfe Systems, Germany). Cell concentrations were adjusted to 3×10^5 mL^−1, and 1.000 μL per well of the suspension were dispensed into poly-D-lysine-coated flat-clear-bottom 24 well plates.
(§5) Compound radiolabeling was performed as follows. […] Then, 25 mg/mL methionine in 1 M sodium acetate buffer pH 5 was added at a final concentration of 0.1 M sodium acetate. Subsequently, the mixture was heated to 80° C. for 25 min, followed by cooling for 5 minutes. Finally, 20 μL of 200 mg/mL ascorbic acid solution, 2.5 μL of 5 mg/mL DTPA and 2.5 μL of 5% TWEEN-20 per 100 μL reaction mixture were added, resulting in the concentrated study solution. For quality control, an aliquot of the labeling solution was diluted 1:40 with 0.1% TWEEN-20 in 0.1 M sodium acetate buffer pH 5. Five microliters of the diluted labeling solution were injected onto a Poroshell SB-C18 2.1×50 mm, 2.7 μm column. HPLC analysis was performed as follows: Gradient A: H2O, 0.1% TFA, Gradient B: Acetonitrile (MeCN), gradient from 5% B to 70% B within 15 min, flow rate of 0.5 mL/min; detector: NaI, DAD 215 nm. The peak eluting with the dead volume represents free radionuclide, the peak eluting with the ligand-specific retention time as determined with a non-labeled sample represents the radiolabeled compound.
The radioligand saturation binding on CHO-msCAIX was determined as follows. […] Their associated radioactivity was counted using a gamma counter and normalized to the measured protein concentration of each well. […]

In another assay the target is human CAIX (Homo sapiens, UniProt Q16790). Put plainly: Radioligand saturation binding and equilibration on CHO-huCAIX. On the set-up: host or cells: CHO-VGT / CHO cells. As to the method:
as §1, §2, §3, §4, §5
The assessment of the time needed until attainment of equilibration on CHO-huCAIX and CHO-dgCAIX was performed as follows. The 10 mM 3BP-3565 stock solution was diluted with assay medium (Ham's medium without additives) to prepare an 8-μM blocking working solution. The radiolabeling mixtures were diluted with assay medium to prepare 160 nM radioligand working solutions. Subsequently, 1.6 and 3.2 nM radioligand dilutions were prepared by diluting the radioligand working solutions 1:100 and 1:50, respectively, with assay medium. Approximately 24 hours after re-seeding (3×10^5 mL^−1 cells per well), the medium was aspirated, and the cells were washed once with assay medium (700 μL). To determine total binding, 700 μL of binding medium and 100 μL of the radioligand dilutions were added to the wells in triplicates.
To determine non-specific binding, 600 μL of binding medium, 100 μL of the […] 3BP-3565 blocking solution and 100 μL of the radioligand dilutions were added to the wells in triplicates. The plates were incubated for 1 h, 3 h, 6 h, and 8 h at 37° C. under standard cell culture conditions (5% CO2). At the end of the incubation time, the plates were placed on ice while aspirating the radioligand solutions. Subsequently, the cells were washed with ice-cold PBS (0.5 mL, 1 mL, 1 mL). […]

Bounds are passed on as bounds.

T1 sequence (Q8VHB5 32-437): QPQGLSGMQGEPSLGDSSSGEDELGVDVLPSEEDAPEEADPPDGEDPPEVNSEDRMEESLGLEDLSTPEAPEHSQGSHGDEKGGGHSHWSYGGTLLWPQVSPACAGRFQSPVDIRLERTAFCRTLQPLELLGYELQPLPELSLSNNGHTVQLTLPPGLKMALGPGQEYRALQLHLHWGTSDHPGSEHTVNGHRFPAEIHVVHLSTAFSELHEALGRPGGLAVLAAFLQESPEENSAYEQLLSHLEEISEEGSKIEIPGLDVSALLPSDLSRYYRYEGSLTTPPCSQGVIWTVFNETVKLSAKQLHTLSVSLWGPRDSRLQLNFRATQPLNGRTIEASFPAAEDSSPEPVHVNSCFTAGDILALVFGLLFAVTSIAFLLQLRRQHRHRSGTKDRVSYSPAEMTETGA

As usually defined, the Kd is the concentration at which binding is half-saturated. High values mean a looser complex, low ones a tighter complex. Regarding `CC(C)C[C@@H]1NC(=O)[C@H](Cc2cccc(NC(=O)CCCS(N)(=O)=O)c2)NC(=O)[C@H](CC(=O)O)NC(=O)[C@H]2CCCN2C(=O)[C@H](CCC(=O)O)NC(=O)[C@@H](NC(=O)[C@H](CCC(N)=O)NC(=O)CN2CCN(C(=O)CN3CCN(CC(=O)O)CCN(CC(=O)O)CCN(CC(=O)O)CC3)CC2)CSCc2cccc(c2)CSC[C@@H](C(N)=O)NC(=O)[C@H](CO)NC(=O)[C@H](Cc2c[nH]c3ccccc23)NC(=O)[C@H]([C@@H](C)O)NC1=O` [[^111In]In-DPI-4452, metal not drawn], the Kd on mouse CAIX was 63.1 nM; at human CAIX (Mean pKd ± SD, CHO-huCAIX), 0.316 nM; at human CAIX (pKd, CHO-huCAIX, first independent experiment), 0.2 nM; at human CAIX (pKd, CHO-huCAIX, second independent experiment), 0.501 nM; on human CAIX (pKd, human CAIX expressed in CHO cells, 8 h at 37°C) it was at most 1 nM. In addition, the “Mean pKd ± SD” value on mouse CAIX (CHO-msCAIX, single experiment) was determined as 7.2.

These data come from patent US20250339569A1, “CARBONIC ANHYDRASE IX LIGANDS” (priority 2021, published 2025).
